According to patent US20180236080A1, “FAST-ACTING INSULIN COMPOSITION COMPRISING A CITRIC ACID SALT” (ADOCIA, priority 2017, published 2018):

Tests used:
[1] = cited from earlier work
[2] = at 4° C.; cited from earlier work
[3] = molecular target: hexameric R6 form of insulin lispro (Homo sapiens, UniProt P01308, K53P/P52K); settings: insulin lispro 100 IU/ml, FIG. 5 and FIG. 6
Source text: The loss of the signal at 240 nm is related to a destabilization of the hexameric R6 form and the passage from the R6 form to the T6 form.

[4] = molecular target: hexameric form R6 of insulin aspart (Homo sapiens, UniProt P01308, P52D); settings: insulin aspart 100 U/ml, FIG. 9 and FIG. 10
hexameric form R6 of insulin aspart, sequence (P01308 25-54 P52D limits assumed): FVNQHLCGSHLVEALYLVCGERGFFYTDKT
hexameric form R6 of insulin aspart, sequence (P01308 90-110 limits assumed): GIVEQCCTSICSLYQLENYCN
Source text: The loss of the signal at 240 nm is related to a destabilization of the hexameric form R6 and the passage from R6 form to T6 form.
FIG. 9 describes the CD signal at 240 nm (deg·cm^2·dmol^−1) on the ordinate and on the abscissa:
Circular dichroism has been performed at 240 nm on the following compositions (FIG. 10):

hexameric R6 form of insulin lispro, sequence (P01308 25-54 P52K/K53P limits assumed): as the sequence (P01308 25-54 P52D limits assumed) above, with D28K, K29P counted along it

Row | Impact on the CD signal at 240 nm / R6 form of insulin lispro [3] | Impact on the CD signal at 240 nm / R6 form of insulin aspart [4] | Compound | Delay of action compared to a fast-acting insulin analog ([1]; dissociation of hexamers into dimers and monomers, Brange J. et al. 1999) | Time after which a hypoglycemic effect occurs ([1]; injected subcutaneously) | Stability in the form of hexamers [2]
1 | – | – | human insulin | ~20 minutes | 60 min | ~2 years
2 | completely deconstructs the R6 form | completely deconstructs the R6 form | O=C(O)CN(CCN(CC(=O)O)CC(=O)O)CC(=O)O [EDTA] | – | – | –
